Measured values reported in US20180193401A1, “ANTI-OBESITY COMPOSITION COMPRISING NATURAL COMPLEX” (MEGABIOWOOD CO., LTD., priority 2017, published 2018).
“And” between values parts separate entries of the source, which are not always exact repeats. Identical values can stand only once. Marks after values point to notes of the source that are not given here.

Experiments:
C57BL/6J mice [1] = test: Body weight gain, food intake and food efficiency ratio, 8-week oral administration; format: in vivo; conditions: HD (high-fat diet), HCA 300 mg/kg BW/day oral, 8 weeks
From the text: (§1) Four-week-old male C57BL/6J mice were purchased from Central Lab-Animal Inc. (Seoul, Korea), adapted for a week to a normal diet in which fats accounted for 10% of the total calories, and then used for experiments. To induce obesity, a high fat diet in which fats accounted for 60% of the total calories was supplied to all groups other than a normal diet (ND) group and an ND sample group, and a normal diet in which fats accounted for 10% of the total calories was freely supplied to the ND group and the ND sample group for a total of 8 weeks. The experimental groups were divided into a total of 6 groups: a ND group, a high fat diet (HD) group, a positive control (HCA), a sample group (ND+JMW) in which a hot-water extract complex of bamboo leaves plus quince was administered to the ND group, and sample-efficacy groups (HD+JMW200 and HD+JMW400) in which a two-fold concentration of the hot-water extract complex of bamboo leaves plus quince was administered to the high fat diet group. In this case, ten mice were assigned to each group using a randomized block design, and used for experiments. To check an anti-obesity effect of the sample extract for 8 weeks (week 1 to 8) after a one-week adaptation, the test material was dissolved in distilled water, and orally administered to the positive control, the ND sample group, and the HD sample-efficacy groups once a day at a concentration of 300 mg/kg BW/day, 400 mg/kg BW/day, 200 mg/kg BW/day, and 400 mg/kg BW/day, respectively. Also, distilled water was administered to the ND group and the HD group. After laboratory animals were adapted for a week, the hot-water extract complex of bamboo leaves plus quince was orally administered to the C57BL/6J mice for 8 weeks to observe a change in body weight.

3T3-L1 adipocytes [2] = test: Analysis of triglyceride content; format: cell-based; conditions: 100 μg/mL; differentiated adipocytes 126.2±1.25
Procedure: (§2) An adipocyte 3T3-L1 cell line was purchased from the American Type Culture Collection (Rockville, Md., USA), and cultured at 37° C. in a DMEM (Invitrogen, USA) medium supplemented with 10% fetal bovine serum (FBS; Invitrogen, USA) in a 5% CO2 incubator. To avoid contamination, 100 units/mL of penicillin and 100 μg/mL of streptomycin (Gibco/BRL, USA) as antibiotics were added thereto, and the cells were treated with trypsin-EDTA (Gibco/BRL, USA), and sub-cultured. The medium was replaced with a fresh one every two or three days. For treatment with the extract complex, the cultured 3T3-L1 cell line was transferred to a 24-well plate (Corning, USA) at a density of 1×10^5 cells/well. After the medium was replaced with a FBS-free medium the next evening, the 3T3-L1 cell line was treated for 16 hours. 3T3-L1 adipocytes were treated with each of the 30% ethanol extract complex of bamboo leaves plus quince and the hot-water extract complex of bamboo leaves plus quince at concentrations of 50 and 100 μg/mL to measure a concentration of triglycerides.

C57BL/6J mice [3] = test: Weight of adipose tissues (EAT, BAT); format: in vivo; conditions: HD (high-fat diet), HCA 300 mg/kg BW/day oral, 8 weeks
From the text: as §1, with “[…] The weights” for “To check an anti-obesity effect”, “adipose tissues in” for “sample extract for 8 weeks (week 1 to 8) after a one-week adaptation,”, “the” for “the test material was dissolved in distilled water, and orally administered to the positive control, the ND sample group, and the HD sample-efficacy groups once a day at a concentration of 300 mg/kg BW/day, 400 mg/kg BW/day, 200 mg/kg BW/day, and 400 mg/kg BW/day, respectively. Also, distilled water was administered to the ND group and the HD group. After”, “treated with” for “were adapted for a week,”, “were measured.” for “was orally administered to the C57BL/6J mice for 8 weeks to observe a change in body weight.”

3T3-L1 adipocytes [4] = test: Analysis of glycerol release; format: cell-based; conditions: 100 μg/mL; differentiated adipocytes 18.10±2.28
Procedure: as §2, with “measure an amount of glycerol production. An amount of glycerol production in undifferentiated pre-adipocytes was 2.46±1.34 μg/mL, an amount of glycerol production in differentiated adipocytes was 18.10±2.28 μg/mL, and an amount of glycerol production in the positive control was 32.09±1.23 μg/mL when HCA was present at” for “measure”, “100 μg/m L.” for “triglycerides.”

C57BL/6J mice [5] = test: Analysis of blood lipids; format: in vivo; conditions: HD (high-fat diet), HCA 300 mg/kg BW/day oral, 8 weeks
From the text: as §1, with “An amount of blood lipids (triglycerides and cholesterol) was measured in the” for “After”, “treated with” for “were adapted for a week,”, “quince.” for “quince was orally administered to the C57BL/6J mice for 8 weeks to observe a change in body weight.”

3T3-L1 adipocytes [6] = test: Analysis of leptin production (ELISA kit); format: cell-based; conditions: 100 μg/mL; differentiated adipocytes 0.50±0.01
Procedure: as §2, with “hours. Leptin is a hormone that is produced by an obesity gene in adipocytes. Thus, a blood leptin concentration has been widely used for obesity research as an indicator of body fat mass because a secretion rate of leptin increases with an increase in fat accumulated in the adipocytes. […]” for “hours.”, “μg/mL, and” for “μg/mL to measure”, “leptin was then measured using an ELISA kit.” for “triglycerides.”

O=C(O)CC(O)(C(=O)O)C(O)C(=O)O (stereo not shown) [HCA, hydroxycitric acid]
Final body weight (C57BL/6J mice [1]): 33.50 ± 3.58^b g | Food intake (C57BL/6J mice [1]): 3.79 g/day and 3.79 ± 0.05^c g/day | Weight gain (C57BL/6J mice [1]): 12.83 g/8 weeks and 12.83 ± 0.94^b g/8 weeks | triglyceride content (3T3-L1 adipocytes [2]): 98.01±1.24 μg/mg protein | BAT (brown adipose tissue) weight (C57BL/6J mice [3]): 0.09 ± 0.02^b g | EAT (epididymal adipose tissue) weight (C57BL/6J mice [3]): 1.70 g and 1.70 ± 0.14^b g | amount of glycerol production (3T3-L1 adipocytes [4]): 32.09 ± 1.23 µg/mL | HDL-cholesterol (C57BL/6J mice [5]): 75.66 mg/dL and 75.66 ± 8.11^b mg/dL | LDL-cholesterol (C57BL/6J mice [5]): 131.06 ± 6.82^b mg/dL | Total cholesterol (blood) (C57BL/6J mice [5]): 241.53 mg/dL and 241.53 ± 8.87^b mg/dL | Triglyceride (blood) (C57BL/6J mice [5]): 174.08 mg/dL and 174.08 ± 3.49^b mg/dL | LDL-cholesterol (C57BL/6J mice [5]; listed as positive control): 131.06 mg/dL | amount of leptin production (3T3-L1 adipocytes [6]): 0.39 ± 0.01 ng/mL
